Assay results published in the NIST ThermoML archive (doi:10.1016/j.jct.2006.07.018).

Assay: molar heat capacity at constant pressure; mn = molality of the nth substance listed, in mol/kg
Settings: 350 kPa, Liquid, high-precision DSC

CSCC[C@H](N)C(=O)O [L-methionine] + O
molar heat capacity at constant pressure [J/K/mol]
Settings | m1 = 0.0125 | m1 = 0.025 | m1 = 0.05 | m1 = 0.0997 | m1 = 0.1501 | m1 = 0.1929
278.15 K | 75.75 | 75.8 | 75.86 | 76.01 | 76.17 | 76.3
283.15 K | 75.58 | 75.64 | 75.71 | 75.87 | 76.04 | 76.19
288.15 K | 75.47 | 75.53 | 75.6 | 75.78 | 75.96 | 76.12
293.15 K | 75.39 | 75.46 | 75.53 | 75.72 | 75.92 | 76.08
298.15 K | 75.34 | 75.41 | 75.49 | 75.69 | 75.89 | 76.06
303.15 K | 75.31 | 75.38 | 75.46 | 75.67 | 75.88 | 76.05
308.15 K | 75.3 | 75.37 | 75.45 | 75.66 | 75.88 | 76.05
313.15 K | 75.3 | 75.37 | 75.46 | 75.67 | 75.9 | 76.06
318.15 K | 75.31 | 75.38 | 75.47 | 75.68 | 75.92 | 76.09
323.15 K | 75.33 | 75.4 | 75.5 | 75.71 | 75.95 | 76.12
328.15 K | 75.37 | 75.44 | 75.53 | 75.75 | 75.99 | 76.16
333.15 K | 75.41 | 75.48 | 75.57 | 75.79 | 76.03 | 76.21
338.15 K | 75.45 | 75.53 | 75.62 | 75.84 | 76.08 | 76.26
343.15 K | 75.51 | 75.59 | 75.68 | 75.9 | 76.13 | 76.32
348.15 K | 75.58 | 75.65 | 75.75 | 75.96 | 76.2 | 76.38
353.15 K | 75.65 | 75.72 | 75.82 | 76.03 | 76.27 | 76.46
358.15 K | 75.73 | 75.8 | 75.9 | 76.11 | 76.35 | 76.54
363.15 K | 75.82 | 75.88 | 75.98 | 76.2 | 76.43 | 76.62
368.15 K | 75.91 | 75.98 | 76.08 | 76.29 | 76.53 | 76.71
373.15 K | 76.01 | 76.08 | 76.18 | 76.39 | 76.63 | 76.81
378.15 K | 76.13 | 76.19 | 76.29 | 76.5 | 76.74 | 76.92
383.15 K | 76.24 | 76.31 | 76.41 | 76.62 | 76.85 | 77.03
388.15 K | 76.38 | 76.45 | 76.54 | 76.74 | 76.98 | 77.15
393.15 K | 76.52 | 76.6 | 76.68 | 76.88 | 77.11 | 77.28
